Measured values from paper PMC11396129, “Oxindole–benzothiazole hybrids as CDK2 inhibitors and anticancer agents: design, synthesis and biological evaluation” (BMC Chemistry, 2024).

Legend:
[1] = test system: OVCAR-3; test: NCI 60 panel growth inhibition (SRB), ovarian cancer; type: cell-based, human
Summary of the method: (§1)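 Plating density: 5000–40,000 cells/well. Drug: DMSO concentrate diluted into medium plus gentamicin, five levels. Fixation: TCA. Read-out: SRB absorbance, converted to percentage growth against Tz and C.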

[2] = test system: SK-OV-3; test: as above; type: cell-based, human; details: Homo sapiens; SK-OV-3, five dose
Summary of the method: as §1

[3] = test system: OVCAR-5; test: as above; type: cell-based, human
Summary of the method: as §1

[4] = test system: OVCAR-4; test: as above; type: cell-based, human
Summary of the method: as §1

[5] = test system: OVCAR-8; test: as above; type: cell-based, human
Summary of the method: as §1

[6] = test system: IGROV1; test: as above; type: cell-based, human
Summary of the method: as §1

[7] = test system: NCI/ADR-RES; test: as above; type: cell-based, human
Summary of the method: as §1

[8] = test system: PC-3; test: NCI 60 panel growth inhibition (SRB), prostate cancer; type: cell-based, human
Summary of the method: as §1

[9] = test system: DU-145; test: as above; type: cell-based, human
Summary of the method: as §1

[10] = test system: MDA-MB-468; test: NCI 60 panel growth inhibition (SRB), breast cancer; type: cell-based, human
Summary of the method: as §1

[11] = test system: MCF7; test: as above; type: cell-based, human
Summary of the method: as §1

[12] = test system: HS 578T; test: as above; type: cell-based, human
Summary of the method: as §1

[13] = test system: T-47D; test: as above; type: cell-based, human; details: Homo sapiens, T47D, five dose
Summary of the method: as §1

[14] = test system: MDA-MB-231/ATCC; test: as above; type: cell-based, human
Summary of the method: as §1

[15] = test system: BT-549; test: as above; type: cell-based, human
Summary of the method: as §1

[16] = test system: A498; test: NCI 60 panel growth inhibition (SRB), renal cancer; type: cell-based, human
Summary of the method: as §1

[17] = test system: 786-0; test: NCI 60 panel growth inhibition (SRB), renal cancer; type: cell-based, human
Summary of the method: as §1

[18] = test system: CAKI-1; test: NCI 60 panel growth inhibition (SRB), renal cancer; type: cell-based, human
Summary of the method: as §1

[19] = test system: TK-10; test: NCI 60 panel growth inhibition (SRB), renal cancer; type: cell-based, human
Summary of the method: as §1

[20] = test system: SN12C; test: NCI 60 panel growth inhibition (SRB), renal cancer; type: cell-based, human
Summary of the method: as §1

[21] = test system: RXF 393; test: NCI 60 panel growth inhibition (SRB), renal cancer; type: cell-based, human
Summary of the method: as §1

[22] = test system: UO-31; test: NCI 60 panel growth inhibition (SRB), renal cancer; type: cell-based, human
Summary of the method: as §1

[23] = test system: ACHN; test: NCI 60 panel growth inhibition (SRB), renal cancer; type: cell-based, human
Summary of the method: as §1

[24] = test system: NCI 60 cancer cell line panel; test: NCI 60 panel growth inhibition (SRB), whole panel; type: cell-based, human
Summary of the method: as §1

[25] = molecular target: T1, CDK2 (Homo sapiens, UniProt P24941); test: CDK2 kinase assay (BPS kit, Kinase-Glo Max); type: biochemical
T1 construct: purchased BPS Biosciences 79599

[26] = test system: HT29; test: NCI 60 panel growth inhibition (SRB), colon cancer; type: cell-based, human
Summary of the method: as §1

[27] = test system: MDA-MB-435; test: NCI 60 panel growth inhibition (SRB), melanoma; type: cell-based, human
Summary of the method: as §1

[28] = test system: SK-MEL-2; test: NCI 60 panel growth inhibition (SRB), melanoma; type: cell-based, human
Summary of the method: as §1

[29] = molecular target: CDK5 (Homo sapiens, UniProt Q00535); test: Kinase inhibitory activity on CDK5; type: biochemical; details: mean of two independent experiments ± SD
Chain of CDK5 (Q00535 whole entry, species assumed): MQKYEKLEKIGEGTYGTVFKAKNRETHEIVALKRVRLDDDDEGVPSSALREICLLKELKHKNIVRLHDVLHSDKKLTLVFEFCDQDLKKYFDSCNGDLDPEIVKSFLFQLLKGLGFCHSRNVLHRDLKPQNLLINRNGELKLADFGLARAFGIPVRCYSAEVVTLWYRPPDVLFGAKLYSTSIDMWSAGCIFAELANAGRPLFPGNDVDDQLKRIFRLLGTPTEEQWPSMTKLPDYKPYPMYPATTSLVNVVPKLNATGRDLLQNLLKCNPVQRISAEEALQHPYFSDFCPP
Chain of CDK5 (Q15078 99-307 partner limits assumed, species assumed): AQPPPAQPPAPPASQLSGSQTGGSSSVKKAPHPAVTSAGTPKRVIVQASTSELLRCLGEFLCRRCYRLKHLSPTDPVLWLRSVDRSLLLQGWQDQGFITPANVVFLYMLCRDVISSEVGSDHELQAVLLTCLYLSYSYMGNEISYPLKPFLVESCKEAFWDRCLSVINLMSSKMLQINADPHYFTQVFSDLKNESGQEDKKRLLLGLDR

[30] = molecular target: CDK1 (Homo sapiens, UniProt P06493); test: Kinase inhibitory activity on CDK1; type: biochemical; details: mean of two independent experiments ± SD
Chain of CDK1 (P06493 whole entry, species assumed): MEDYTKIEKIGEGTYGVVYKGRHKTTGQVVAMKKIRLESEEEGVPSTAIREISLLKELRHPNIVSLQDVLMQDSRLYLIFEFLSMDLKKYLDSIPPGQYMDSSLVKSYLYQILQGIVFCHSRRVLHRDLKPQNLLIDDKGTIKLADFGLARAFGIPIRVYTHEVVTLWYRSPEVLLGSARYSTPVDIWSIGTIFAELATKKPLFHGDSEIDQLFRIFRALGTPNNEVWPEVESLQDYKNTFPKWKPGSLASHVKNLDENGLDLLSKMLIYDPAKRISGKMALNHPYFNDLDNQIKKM
Chain of CDK1 (P14635 whole entry partner, species assumed): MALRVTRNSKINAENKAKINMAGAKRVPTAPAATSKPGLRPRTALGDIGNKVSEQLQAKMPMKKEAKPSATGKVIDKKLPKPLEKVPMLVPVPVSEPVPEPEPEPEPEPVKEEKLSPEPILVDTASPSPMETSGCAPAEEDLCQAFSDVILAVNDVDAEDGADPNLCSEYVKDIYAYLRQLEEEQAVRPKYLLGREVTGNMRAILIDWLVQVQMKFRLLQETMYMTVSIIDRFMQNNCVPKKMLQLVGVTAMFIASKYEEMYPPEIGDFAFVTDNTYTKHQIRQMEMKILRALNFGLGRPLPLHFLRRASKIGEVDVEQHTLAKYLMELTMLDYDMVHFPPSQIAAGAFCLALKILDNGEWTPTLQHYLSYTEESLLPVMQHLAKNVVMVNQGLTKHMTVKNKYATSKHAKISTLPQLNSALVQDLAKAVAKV

COc1ccc2c(c1)C(=NNC(=O)COc1cc(-c3nc4ccccc4s3)ccc1OC)C(=O)N2 [Compound 9o, 2-(5-(Benzo[d]thiazol-2-yl)-2-methoxyphenoxy)-N′-(5-methoxy-2-oxoindolin-3-ylidene)acetohydrazide]
GI50 ([1]; Homo sapiens, OVCAR-3, five dose): 2.49 µM
GI% ([1]; OVCAR-3, 10 μM): 94.12%
GI50 [2]: 48.9 µM
GI50 ([3]; Homo sapiens, OVCAR-5, five dose): > 100 µM
GI% ([3]; OVCAR-5, 10 μM): 9.28%
GI50 ([4]; Homo sapiens, OVCAR-4, five dose): > 100 µM
GI% ([4]; OVCAR-4, 10 μM): 68.35%
GI50 ([5]; Homo sapiens, OVCAR-8, five dose): 4.02 µM
GI% ([5]; OVCAR-8, 10 μM): 93.38%
GI50 ([6]; Homo sapiens, IGROV-1, IGROV1, five dose): 2.22 µM
GI% ([6]; IGROV1, 10 μM): 18.68%
GI% ([7]; 10 μM): 130.36%
GI50 ([7]; Homo sapiens, five dose): 18.5 µM
GI50 ([8]; Homo sapiens, PC-3, five dose): 3.78 µM
GI% ([8]; PC-3, 10 μM): 49.56%
GI% ([9]; DU-145, 10 μM): 130.12%
GI50 ([9]; Homo sapiens, DU-145, five dose): 2.92 µM
GI50 ([10]; Homo sapiens, MDA-MB-468, five dose): 3.72 µM
GI% ([10]; MDA-MB-468, 10 μM): 60.54%
GI50 ([11]; Homo sapiens, MCF7, five dose): 3.44 µM
GI% ([11]; MCF7, 10 μM): 82.77%
GI% ([12]; 10 μM): 34.64%
GI50 ([12]; Homo sapiens, five dose): 24.8 µM
GI50 [13]: 41 µM
GI% ([14]; 10 μM): 75.41%
GI50 ([14]; Homo sapiens, five dose): 5.44 µM
GI% ([15]; BT-549, 10 μM): 33.89%
GI50 ([15]; Homo sapiens, BT-549, five dose): 17.6 µM
GI% ([16]; A498, 10 μM): – (GI% < 5%)
GI50 ([16]; Homo sapiens, A498, five dose): > 100 µM
GI% ([17]; 786-0, 10 μM): 75.63%
GI50 ([17]; Homo sapiens, 786-0, five dose): 16.1 µM
GI% ([18]; CAKI-1, 10 μM): 72.22%
GI50 ([18]; Homo sapiens, CAKI-1, five dose): 56.2 µM
GI50 ([19]; Homo sapiens, TK-10, five dose): 71.7 µM
GI% ([19]; TK-10, 10 μM): 86.88%
GI% ([20]; 10 μM): 24.01%
GI50 ([20]; Homo sapiens, five dose): 25.6 µM
GI50 ([21]; Homo sapiens, RXF 393, five dose): 5.06 µM
GI% ([21]; RXF 393, 10 μM): 129.01%
GI50 ([22]; Homo sapiens, UO-31, five dose): 2.03 µM
GI% ([22]; UO-31, 10 μM): 44.24%
GI% ([23]; 10 μM): 96.99%
GI50 ([23]; Homo sapiens, five dose): 6.7 µM
GI50 ([24]; Homo sapiens, five dose, NCI cancer cell lines, read-out: GI50 reached (most sensitive NCI cell line)): 2.02 µM
Mean GI% ([24]; mean over NCI 60 panel, 10 μM): 55.91%
kinase selectivity ([25]; from IC50 of Tables 4 and 5): higher selectivity toward CDK2 and CDK5 over CDK1, VEGFR-2 and FGFR-1
IC50 ([25]; mean of two independent experiments ± SD): 0.21 ± 0.015 µM
GI% ([26]; HT29, 10 μM): 20.32%
GI50 ([26]; Homo sapiens, HT-29, HT29, five dose): 26.8 µM
GI50 ([27]; Homo sapiens, MDA-MB-435, five dose): 20.6 µM
GI% ([27]; MDA-MB-435, 10 μM): 96.57%
GI50 ([28]; Homo sapiens, SK-MEL-2, five dose): > 100 µM
GI% ([28]; SK-MEL-2, 10 μM): 26.06%
IC50 [29]: 0.34 ± 0.02 µM
IC50 [30]: 1.19 ± 0.1 µM
